From US7317107B2, “Imidazole 4-carboxamide compounds with adenosine deaminase inhibiting activity” (Astellas Pharma Inc., priority 2002, dated 2008)
Structures can show the parent of a compound that is named as a salt.

Target: T1, Human ADA (Homo sapiens, UniProt P00813)
T1 construct: made in house
T1 sequence (P00813 1-363): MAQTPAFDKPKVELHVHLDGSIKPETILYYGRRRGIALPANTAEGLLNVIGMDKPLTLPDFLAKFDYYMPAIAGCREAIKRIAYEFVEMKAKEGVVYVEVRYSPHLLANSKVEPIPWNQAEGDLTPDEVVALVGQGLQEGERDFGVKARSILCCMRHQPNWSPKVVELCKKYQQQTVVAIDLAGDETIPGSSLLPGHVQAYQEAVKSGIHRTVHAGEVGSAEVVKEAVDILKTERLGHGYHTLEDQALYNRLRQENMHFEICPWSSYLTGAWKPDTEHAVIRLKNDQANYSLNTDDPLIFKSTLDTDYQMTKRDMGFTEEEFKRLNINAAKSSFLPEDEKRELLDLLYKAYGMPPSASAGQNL
Experiment: Adenosine Deaminase (ADA) Enzyme Assay
Type: biochemical
Details: 0.16 μg/ml ADA, 0.1 mM adenosine, 10 mM phosphate buffer saline pH 7.4, room temperature, decrease in A265 for 3 minutes
Experimental: Adenosine Deaminase (ADA) Enzyme Assay
• 1-{(3R,4S)-4-Hydroxy-1-[2-(4-ethoxyphenyl)-4-benzoxazolyl]-3-pentyl}-imidazole-4-carboxamide hydrochloride (E0023) • 1-{(3R,4S)-4-Hydroxy-1-[2-(2-thienyl)-7-benzoxazolyl]-3-pentyl}-imidazole-4-carboxamide hydrochloride (E0028) Test Method:
The reaction velocity (V) is measured by a change in absorbance at 265 nm (A265) resulting from the deamination of adenosine. Human ADA was expressed and purified from ADA-deficient bacterial strain. Reaction mixtures of a total volume of 200 μl contained 0.16 μg/ml of ADA and 0.1 mM of adenosine and test compound in 10 mM phosphate buffer saline (pH 7.4). The reaction was started by addition of ADA to a mixture of adenosine and test compound. The reaction was followed at room temperature by recording decrease in A265 for 3 minutes in SPECTRAmax 250 (Molecular Devices, USA) to automatically calculate Vmax. Inhibitory potency of test compound was expressed as IC50 value, the drug concentration required to produce 50% inhibition of Vmax in comparison to vehicle treatment.

Compound | IC50 [nM]
CCOc1ccc(-c2nc3c(CC[C@H]([C@H](C)O)n4cnc(C(N)=O)c4)cccc3o2)cc1 [Compound E0023, 1-{(3R,4S)-4-Hydroxy-1-[2-(4-ethoxyphenyl)-4-benzoxazolyl]-3-pentyl}imidazole-4-carboxamide hydrochloride] | < 20
C[C@H](O)[C@@H](CCc1cccc2nc(-c3cccs3)oc12)n1cnc(C(N)=O)c1 [Compound E0028, 1-{(3R,4S)-4-Hydroxy-1-[2-(2-thienyl)-7-benzoxazolyl]-3-pentyl}imidazole-4-carboxamide hydrochloride] | < 20
